Source: BindingDB's records for doi:10.1021/jm050224y (Philipps-Universitat Marburg, 2005)

Molecular target: T1, Dimer of Gag-Pol polyprotein [489-587] (Human immunodeficiency virus 1, UniProt P12497)
T1 construct: 489-587
Test: Protease Inhibition Assay
Conditions: pH 5.5; 25 °C
Description: The inhibition assays were performed by mixing enzyme and fluorogenic substrate in the presence of inhibitor compounds. The hydrolysis of the substrate was recorded as an increase of the fluorescence intensity. Ki values were calculated from the IC50 values taken from a dose-response curve with the fluorescent assay using the equation Ki = (IC50 - [E]/2)/ (1 +[S]/Km), where [E] and [S] are the protease and substrate concentrations, Km is the Michaelis-Menten constant.

| SMILES | IC50 | Ki |
| --- | --- | --- |
| O=C(N[C@@H](Cc1cccc(Br)c1)[C@H](O)C[C@H](CCc1ccc(Cl)cc1Cl)S(=O)(=O)c1ccc(F)cc1)[C@H]1CCCO1 [(2R)-N-{(1S,2R,4S)-1-(3-bromobenzyl)-6-(2,4-dichlorophenyl)-4-[(4-fluorophenyl)sulfonyl]-2-hydroxyhexyl}tetrahydrofuran-2-carboxamide] | 4.2 µM |  |
| CC(C)CCS(=O)(=O)[C@@H](C)C[C@@H](O)[C@H](Cc1cccc(Br)c1)NC(=O)CCS(C)(=O)=O [N-{(1S,2R,4S)-1-(3-bromobenzyl)-2-hydroxy-4-[(3-methylbutyl)sulfonyl]pentyl}-3-(methylsulfonyl)propanamide] | > 40 µM | > 40 µM |
| O=C(N[C@H](Cc1cccc(Br)c1)[C@@H](O)C[C@@H](CCc1ccc(Cl)cc1Cl)S(=O)(=O)c1ccc(F)cc1)[C@H]1CCCO1 [(2R)-N-{(1R,2S,4R)-1-(3-bromobenzyl)-6-(2,4-dichlorophenyl)-4-[(4-fluorophenyl)sulfonyl]-2-hydroxyhexyl}tetrahydrofuran-2-carboxamide] | > 40 µM | > 40 µM |
